According to US10563272B2, “Compositions comprising Metarhizium fungi and use thereof as a pesticide” (Cotton Research and Development Corporation, priority 2015, dated 2020):

How the values were obtained:
[1] = test system: Bemisia tabaci b-type adults and nymphs; test: Rate trial on Bollgard II cotton, Norwood 2011-2012 (Example 11): silverleaf whiteflies; format: in vivo; conditions: DAT 511 250 mL, 500 mL, 1 L/ha; Pyriproxyfen 500 mL/ha; P<0.001
Protocol: This trial was conducted on an irrigated Bollgard II® cotton crop on a commercial cotton farm at Norwood near Moree, NSW, in 2011-2012.
(§1) The following treatments were evaluated against Bemisia tabaci b-type adults and nymphs: • 1. 250 mL/ha DAT 511 spore in oil (1×10^7 spores/ml); • 2. 500 mL/ha DAT 511 spore in oil (1×10^7 spores/ml); • 3. 1 L/ha DAT 511 spore in oil (1×10^7 spores/ml); • 4. 500 mL/ha Pyriproxyfen (conventional insecticide); and • 5. Unsprayed (control).
(§2) The treatment plots were arranged in a randomized complete block design with three replicates per treatment. Each replicated plot measured 40 m wide (40 rows) and 90 m long.
Foliar applications of each treatment were made on 28 Feb. and 20 Mar. 2012. […] On each sampling date, 20 plants from each replicate were randomly selected and B. tabaci adults on one leaf from the 5th node below the terminal of each plant were counted. […]
(§3) In the case of nymphs, one leaf from the 5th node below the terminal of each of the 20 plants was cut, removed and carefully placed individually in a plastic bag. The plastic bags containing the leaves were taken to the laboratory and the B. tabaci nymphs were counted under a binocular microscope. Data of both adults and nymphs were expressed as numbers per leaf per treatment.

[2] = test system: Bemisia tabaci b-type adults and nymphs; test: Rate trial on Bollgard cotton, Cooinda St George 2011-2012 (Example 13): silverleaf whiteflies; format: in vivo; conditions: P<0.001; FIG. 50
Protocol: This trial was conducted on an irrigated Bollgard cotton crop on a commercial cotton farm at Cooinda, St George, Queensland, in 2011-2012.
as §1, §2
Foliar applications of each treatment were made on 12 Mar. and 26 Mar. 2012. […] On each sampling date, 20 plants from each replicate were randomly selected and B. tabaci adults on one leaf from the 5th node below the terminal of each plant were counted. […]
as §3

Question: Which “SLW adults and nymphs versus the unsprayed” value [1] does the source give for CC(COc1ccc(Oc2ccccc2)cc1)Oc1ccccn1 (centres unmarked) [Pyriproxyfen] here?
Answer: Its value is “fewer”.

Question: And the “silverleaf whitefly adults and nymphs versus unsprayed plots” value [2]?
Answer: Its value is “Significantly fewer”.
